Laboratory results taken from patent publication US20240018120A1, “MAGL INHIBITORS” (H. LUNDBECK A/S, priority 2020, published 2024).

Legend:
MAGL [1] = target: T1, MAGL (Homo sapiens, UniProt Q99685); experiment: In vitro competitive substrate hydrolysis enzyme activity assay (pNPA), HEK293 cell lysates; type: biochemical; design: expressed in transfected cells; host or cells: HEK293; details: HEK293 lysate
T1 sequence (Q99685 1-303): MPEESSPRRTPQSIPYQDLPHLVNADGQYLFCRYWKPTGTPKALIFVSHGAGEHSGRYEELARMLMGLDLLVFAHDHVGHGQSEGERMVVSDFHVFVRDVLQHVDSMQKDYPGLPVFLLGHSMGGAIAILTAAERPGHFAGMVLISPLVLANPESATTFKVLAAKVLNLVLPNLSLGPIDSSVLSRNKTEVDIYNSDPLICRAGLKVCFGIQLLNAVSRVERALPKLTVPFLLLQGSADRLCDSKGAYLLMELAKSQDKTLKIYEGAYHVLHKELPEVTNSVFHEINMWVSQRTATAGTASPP
In short: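 Lysates of HEK293 cells expressing human MAGL (~1.2 μg protein) preincubated 30 min at 25° C with inhibitor in 50 mM HEPES pH 7.0, 200 mM KCl, 1 mM EDTA. pNPA substrate then added (2× stock 2.5 mM), and A405 followed for 20 min at 25° C. Rates normalized to DMSO, and IC50 from 4-parameter fit.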

[2] = tested on: cryopreserved human hepatocytes; experiment: In vitro human hepatocyte stability; type: in vitro ADME; details: human hepatocytes 0.5×10^6 cells/mL, 1 μM
Protocol: The metabolic stability of test articles (1 μM) in commercially sourced, pooled donor, cryopreserved human hepatocytes (0.5×10^6 cells/mL) was determined in duplicate. The CLint reactions (250 μL) were initiated by addition of test compound. Aliquots (25 μL) were taken at 0, 15, 30, 45, 60, 90, 120 and 240 minutes and then protein crashed with ice-cold acetonitrile containing internal standard then centrifuged (3220 g for 25 minutes). Supernatant was used for LC-MS/MS analysis. The in vitro half-life (in vitro t½) was determined from the slope value: in vitro t1/2=−0.693/k. Conversion of the in vitro t1/2 (in min) into the scale-up unbound intrinsic clearance (Scaled-up unbound CLint, in mL/min/kg) was done using the following equation (mean of duplicate determinations), with data shown in Table 5: Scaled-up unbound CLint=kV/N×scaling factor. V=incubation volume (0.25 mL); N=number of hepatocytes per well ([…]). Scaling factors for in vivo intrinsic clearance prediction are listed below: […]

MAGL [3] = target: T1, MAGL; experiment: In vitro competitive activity-based protein profiling, PC3 human cell membrane proteomes; type: biochemical; design: endogenous in cells; host or cells: PC3 human cells (membrane proteome); details: human PC3 membrane proteome; for inhibition at 1 µM: read-out: MAGL % inh. 1 μM (human PC3)
In short: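 Competitive ABPP in PC3 membrane proteome (2.0 mg/mL protein): inhibitors preincubated 30 min at 37° C, then JW912-Bodipy probe added for 30 min at room temperature. MAGL band fluorescence after SDS-PAGE normalised to DMSO; IC50 from 4-parameter sigmoidal fit.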

In the case of `O=C(Nc1cccnc1)[C@H]1CC12CCN(C(=O)OC(C(F)(F)F)C(F)(F)F)CC2` (single isomer, unassigned) [Example 2], the IC50 (MAGL [1]) is reported as 0.00289 µM, the “Scaled-up unbound CLint” value [2] is reported as 34.8 mL/min/kg and the inhibition at 1 µM (MAGL [3]) is reported as 100%. The IC50 (MAGL [3]) was 0.002 µM.
`O=C(Nc1cncc(F)c1)C1CC12CCN(C(=O)OC(C(F)(F)F)C(F)(F)F)CC2` (single isomer, unassigned) [Example 40, 1,1,1,3,3,3-hexafluoropropan-2-yl (R or S)-1-((5-fluoropyridin-3-yl)carbamoyl)-6-azaspiro[2.5]octane-6-carboxylate] was tested, and the IC50 (MAGL [1]) was 0.00343 µM, the “Scaled-up unbound CLint” value [2] was 43.25 mL/min/kg and the IC50 (MAGL [3]) was 0.0027 µM.
For `O=C(Nc1cncnc1)C1CC12CCN(C(=O)OC(C(F)(F)F)C(F)(F)F)CC2` (single isomer, unassigned) [Example 96, 1,1,1,3,3,3-hexafluoropropan-2-yl (R or S)-1-(pyrimidin-5-ylcarbamoyl)-6-azaspiro[2.5]octane-6-carboxylate], the IC50 (MAGL [1]) was 0.0489 µM, the “Scaled-up unbound CLint” value [2] was 17.09 mL/min/kg and the inhibition at 1 µM (MAGL [3]) was 100%. The IC50 (MAGL [3]) was 0.0193 µM.
With `Cn1ccc(NC(=O)C2CC23CCN(C(=O)OC(C(F)(F)F)C(F)(F)F)CC3)n1` (single isomer, unassigned) [Example 127, 1,1,1,3,3,3-hexafluoropropan-2-yl (R or S)-1-((1-methyl-1H-pyrazol-3-yl)carbamoyl)-6-azaspiro[2.5]octane-6-carboxylate] the “Scaled-up unbound CLint” value [2] was 9.51 mL/min/kg and the IC50 (MAGL [3]) was 0.019 µM.
In the case of `CC1(NC(=O)C2CC23CCN(C(=O)OC(C(F)(F)F)C(F)(F)F)CC3)CCOCC1` (single isomer, unassigned) [Example 132, 1,1,1,3,3,3-hexafluoropropan-2-yl (R or S)-1-((4-methyltetrahydro-2H-pyran-4-yl)carbamoyl)-6-azaspiro[2.5]octane-6-carboxylate], the “Scaled-up unbound CLint” value [2] is reported as 44.18 mL/min/kg and the IC50 (MAGL [3]) is reported as 0.027 µM.
With `Cn1nccc1NC(=O)C1CC12CCN(C(=O)OC(C(F)(F)F)C(F)(F)F)CC2` (single isomer, unassigned) [Example 135, 1,1,1,3,3,3-hexafluoropropan-2-yl (R or S)-1-((1-methyl-1H-pyrazol-5-yl)carbamoyl)-6-azaspiro[2.5]octane-6-carboxylate] the “Scaled-up unbound CLint” value [2] was 16.79 mL/min/kg and the IC50 (MAGL [3]) was 0.015 µM.
For `O=C(Nc1nccs1)C1CC12CCN(C(=O)OC(C(F)(F)F)C(F)(F)F)CC2` (single isomer, unassigned) [Example 138, 1,1,1,3,3,3-hexafluoropropan-2-yl (R or S)-1-(thiazol-2-ylcarbamoyl)-6-azaspiro[2.5]octane-6-carboxylate], the “Scaled-up unbound CLint” value [2] was 40.48 mL/min/kg and the IC50 (MAGL [3]) was 0.001 µM.
For `O=C(NCc1ccccc1)[C@H]1CC12CCN(C(=O)OC(C(F)(F)F)C(F)(F)F)CC2` (single isomer, unassigned) [Example 150], the “Scaled-up unbound CLint” value [2] was 88.79 mL/min/kg and the IC50 (MAGL [3]) was 0.0031 µM.
In the case of `CC1(CNC(=O)C2CC23CCN(C(=O)OC(C(F)(F)F)C(F)(F)F)CC3)CCOCC1` (single isomer, unassigned) [Example 168, 1,1,1,3,3,3-hexafluoropropan-2-yl (R or S)-1-(((4-methyltetrahydro-2H-pyran-4-yl)methyl)carbamoyl)-6-azaspiro[2.5]octane-6-carboxylate], the “Scaled-up unbound CLint” value [2] is reported as 61.36 mL/min/kg and the IC50 (MAGL [3]) is reported as 0.0074 µM.
`CS(=O)(=O)Nc1ccc(NC(=O)C2CC23CCN(C(=O)OC(C(F)(F)F)C(F)(F)F)CC3)cn1` (single isomer, unassigned) [Example 181, 1,1,1,3,3,3-hexafluoropropan-2-yl (R or S)-1-((6-(methylsulfonamido)pyridin-3-yl)carbamoyl)-6-azaspiro[2.5]octane-6-carboxylate] was tested, and the “Scaled-up unbound CLint” value [2] was 1.94 mL/min/kg and the IC50 (MAGL [3]) was 0.0305 µM.
